Assay results from ChEMBL document CHEMBL5038624, “Construction and activity evaluation of novel dual-target (SE/CYP51) anti-fungal agents containing amide naphthyl structure” (Eur J Med Chem, 2022).
Values after ≈ are worked out from the molar mass of the structure shown.

What was measured:
Type in all cases: functional
Candida albicans [1] = assay: Antifungal activity against Candida albicans SC5314 assessed as reduction in fungal growth incubated for 72 hrs by CLSI protocol based broth microdilution method
Nakaseomyces glabratus = assay: Antifungal activity against Candida glabrata ATCC 0001 assessed as reduction in fungal growth incubated for 72 hrs by CLSI protocol based broth microdilution method
Pichia kudriavzevii = assay: Antifungal activity against Candida krusei ATCC 6258 assessed as reduction in fungal growth incubated for 72 hrs by CLSI protocol based broth microdilution method
Candida tropicalis = assay: Antifungal activity against Candida tropicalis ATCC 1369 assessed as reduction in fungal growth incubated for 72 hrs by CLSI protocol based broth microdilution method
Aspergillus fumigatus = assay: Antifungal activity against Aspergillus fumigatus KM8001 assessed as reduction in fungal growth incubated for 72 hrs by CLSI protocol based broth microdilution method
Candida albicans [2] = assay: Antifungal activity against Candida albicans strain 17 assessed as reduction in fungal growth incubated for 72 hrs by CLSI protocol based broth microdilution method
Candida albicans [3] = assay: Antifungal activity against Candida albicans strain CaR assessed as reduction in fungal growth incubated for 72 hrs by CLSI protocol based broth microdilution method
Candida albicans [4] = assay: Antifungal activity against Candida albicans strain 632 assessed as reduction in fungal growth incubated for 72 hrs by CLSI protocol based broth microdilution method
Candida albicans [5] = assay: Antifungal activity against Candida albicans strain 901 assessed as reduction in fungal growth incubated for 72 hrs by CLSI protocol based broth microdilution method
Candida albicans [6] = assay: Antifungal activity against Candida albicans strain 904 assessed as reduction in fungal growth incubated for 72 hrs by CLSI protocol based broth microdilution method

Row | SMILES | MIC50 (Candida albicans [1]) [µg/mL] | MIC50 (Nakaseomyces glabratus) [µg/mL] | MIC50 (Pichia kudriavzevii) [µg/mL] | MIC50 (Candida tropicalis) [µg/mL] | MIC50 (Aspergillus fumigatus) [µg/mL] | MIC50 (Candida albicans [2]) [µg/mL] | MIC50 (Candida albicans [3]) [µg/mL] | MIC50 (Candida albicans [4]) [µg/mL] | MIC50 (Candida albicans [5]) [µg/mL] | MIC50 (Candida albicans [6]) [µg/mL]
1 | NC(=O)/C=C/c1cccc2ccccc12 | 32 (≈ 162 µM) |  |  |  |  |  |  |  |  | 
2 | O=C(NC(Cn1ccnc1)C(=O)c1ccccc1)c1ccc2ccccc2c1 (stereo not drawn) | 0.125 (≈ 0.338 µM) | 0.25 (≈ 0.677 µM) | 0.5 (≈ 1.35 µM) | 0.5 (≈ 1.35 µM) | > 8 |  |  |  |  | 
3 | O=C(/C=C/c1ccc2ccccc2c1)NC(C(=O)Nc1ccncc1)c1ccccc1 (stereo not drawn) | 0.5 (≈ 1.23 µM) | 0.5 (≈ 1.23 µM) | 0.5 (≈ 1.23 µM) | 0.5 (≈ 1.23 µM) | 2 (≈ 4.91 µM) |  |  |  |  | 
4 | O=C(/C=C/c1cccc2ccccc12)NC(C(=O)NCc1cccnc1)c1ccccc1 (stereo not drawn) | 4 (≈ 9.49 µM) | 2 (≈ 4.74 µM) | 2 (≈ 4.74 µM) | 0.5 (≈ 1.19 µM) | > 8 |  |  |  |  | 
5 | O=C(/C=C/c1cccc2ccccc12)NC(C(=O)Nc1ccncc1)c1ccccc1 (stereo not drawn) | 0.5 (≈ 1.23 µM) | 0.25 (≈ 0.614 µM) | 0.5 (≈ 1.23 µM) | 0.5 (≈ 1.23 µM) | > 8 |  |  |  |  | 
6 | O=C(/C=C/c1cccc2ccccc12)NC(Cn1ccnc1)C(=O)c1ccccc1 (stereo not drawn) | 0.25 (≈ 0.632 µM) | 0.5 (≈ 1.26 µM) | 1 (≈ 2.53 µM) | 0.5 (≈ 1.26 µM) | > 8 |  |  |  |  | 
7 | O=C(/C=C/c1cccc2ccccc12)NC(Cn1ccnc1)c1ccccc1 (stereo not drawn) | 0.125 (≈ 0.34 µM) | 0.5 (≈ 1.36 µM) | 0.125 (≈ 0.34 µM) | 0.25 (≈ 0.68 µM) | 2 (≈ 5.44 µM) | 4 (≈ 10.9 µM) | 4 (≈ 10.9 µM) | > 8 | 4 (≈ 10.9 µM) | > 8
8 | O=C(/C=C/c1cccc2ccccc12)NCc1ccccc1 | 8 (≈ 27.8 µM) |  |  |  |  |  |  |  |  | 
9 | O=C(/C=C/c1ccc2ccccc2c1)NC(C(=O)Nc1cccnc1)c1ccccc1 (stereo not drawn) | 0.5 (≈ 1.23 µM) | 0.25 (≈ 0.614 µM) | 1 (≈ 2.45 µM) | 0.25 (≈ 0.614 µM) | 4 (≈ 9.82 µM) |  |  |  |  | 
10 | O=C(/C=C/c1ccc2ccccc2c1)NC(Cn1cncn1)c1ccccc1 (stereo not drawn) | 0.25 (≈ 0.679 µM) | 0.5 (≈ 1.36 µM) | 0.5 (≈ 1.36 µM) | 0.25 (≈ 0.679 µM) | > 8 |  |  |  |  | 
11 | O=C(NC(Cn1cncn1)C(=O)c1ccccc1)c1ccc2ccccc2c1 (stereo not drawn) | 0.25 (≈ 0.675 µM) | 0.5 (≈ 1.35 µM) | 1 (≈ 2.7 µM) | 0.25 (≈ 0.675 µM) | 4 (≈ 10.8 µM) |  |  |  |  | 
12 | c1ccc2ccccc2c1 [NAPHTHALENE] | > 64 |  |  |  |  |  |  |  |  | 
13 | O=C(NC(Cn1cncn1)c1ccccc1)c1cccc2ccccc12 (stereo not drawn) | 0.25 (≈ 0.73 µM) | 2 (≈ 5.84 µM) | 0.5 (≈ 1.46 µM) | 0.125 (≈ 0.365 µM) | > 8 |  |  |  |  | 
14 | O=C(/C=C/c1cccc2ccccc12)NC(Cn1cncn1)C(=O)c1ccccc1 (stereo not drawn) | 0.25 (≈ 0.631 µM) | 0.25 (≈ 0.631 µM) | 0.5 (≈ 1.26 µM) | 0.125 (≈ 0.315 µM) | 4 (≈ 10.1 µM) |  |  |  |  | 
